Laboratory results taken from patent publication US7462600B2, “Macrolides” (Pfizer Inc, priority 2004, dated 2008).
≈ marks a conversion by molar mass, not a printed value. Like-named read-outs stand apart in the source and are kept apart here.

What was measured:
Assay type in all cases: cell-based
[1] = system: Streptococcus pneumoniae 1095; conditions: microtiter broth dilution
In short: (§1)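 Broth dilution was run in microtiter trays and read per NCCLS M100-S14 to give MICs. Compounds came from 40 mg/ml DMSO stock solutions. The strain panel paired macrolide-susceptible parents with macrolide-resistant derivatives.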

[2] = system: Streptococcus pneumoniae 1175; conditions: microtiter broth dilution
In short: as §1

[3] = system: Streptococcus pneumoniae 1016; assay: MIC, microtiter broth dilution (NCCLS M100-S14), S. pneumoniae 1016 (susceptible)
In short: as §1

[4] = system: Haemophilus influenzae 1218; assay: MIC, microtiter broth dilution (NCCLS M100-S14), H. influenzae 1218 (susceptible)
In short: as §1

[5] = system: Streptococcus pyogenes 1079; assay: MIC, microtiter broth dilution (NCCLS M100-S14), S. pyogenes 1079 (ermB)
In short: as §1

[6] = S. pneumoniae 1016 (susceptible)
[7] = H. influenzae 1218 (susceptible)

SMILES	MIC S. pneumo. 1095 ([1]; Streptococcus pneumoniae 1095)	MIC S. pneumo. 1175 ([2]; Streptococcus pneumoniae 1175)	MIC S. pneumo. 1016 ([3]; Streptococcus pneumoniae 1016)	MIC H. influenzae 1218 ([4]; Haemophilus influenzae 1218)	MIC S. pyogenes 1079 ([5]; Streptococcus pyogenes 1079)	MIC S. pneumo. 1095 ([1]; S. pneumoniae 1095 (ermB))	MIC S. pneumo. 1175 ([2]; S. pneumoniae 1175 (mefA))	MIC S. pneumo. 1016 [3, 6]	MIC H. influenzae 1218 [4, 7]	MIC S. pyogenes 1079 ([5]; S. pyogenes 1079 (ermB))
CCC1OC(=O)C(C)C(=O)C(C)C(OC2OC(C)CC(N(C)C)C2O)C(C)(OC)CC(C)C(=O)C(C)C2N(CC3CN(C(=O)c4ccc5cnccc5n4)C3)C(=O)OC12C.O=CO (stereo not drawn) [4.41]	0.25 µg/mL	<0.06 µg/mL	<0.06 µg/mL	2 µg/mL	>64.00 µg/mL					
CCOc1ccc(S(=O)(=O)N2CC(N3C(=O)OC4(C)C(CC)OC(=O)C(C)C(=O)C(C)C(OC5OC(C)CC(N(C)C)C5O)C(C)(OC)CC(C)C(=O)C(C)C34)C2)cc1OC (stereo not drawn) [Example 3.105, 3-descladinosyl-11,12-dideoxy-6-O-methyl-3-oxo-12,11-(oxycarbonyl-(1-(4-ethoxy-3-methoxybenzene-1-sulfonyl)-azetidin-3-yl)-imino)-erythromycin A]	<0.063 µg/mL	<0.063 µg/mL	<0.063 µg/mL	0.25 µg/mL (≈ 0.283 µM)	1 µg/mL (≈ 1.13 µM)					
CCC1OC(=O)C(C)C(=O)C(C)C(OC2OC(C)CC(N(C)C)C2O)C(C)(OC)CC(C)C(=O)C(C)C2N(CC3CN(C(=O)c4ccnc5nc[nH]c45)C3)C(=O)OC12C.O=CO (stereo not drawn) [4.45]	>64.00 µg/mL	4 µg/mL	<0.06 µg/mL	16 µg/mL	>64.00 µg/mL					
CCC1OC(=O)C(C)C(=O)C(C)C(OC2OC(C)CC(N(C)C)C2O)C(C)(OC)CC(C)C(=O)C(C)C2N(CC3CCN(Cc4cccc5nccnc45)CC3)C(=O)OC12C (stereo not drawn) [15.01]						>64.00 µg/mL	0.25 µg/mL (≈ 0.293 µM)	<0.06 µg/mL	32 µg/mL (≈ 37.6 µM)	>64.00 µg/mL
CCC1OC(=O)C(C)C(=O)C(C)C(OC2OC(C)CC(N(C)C)C2O)C(C)(OC)CC(C)C(=O)C(C)C2N(CC3CCCN3C(=O)c3cnn4cccnc34)C(=O)OC12C (stereo not drawn) [10.51]						<0.06 µg/mL	0.5 µg/mL (≈ 0.595 µM)	<0.06 µg/mL	1 µg/mL (≈ 1.19 µM)	>64.00 µg/mL
CCC1OC(=O)C(C)C(=O)C(C)C(OC2OC(C)CC(N(C)C)C2O)C(C)(OC)CC(C)C(=O)C(C)C2N(CC3CCCN3C(=O)c3cc4ccccc4cn3)C(=O)OC12C.O=CO (stereo not drawn) [10.09]						<0.06 µg/mL	1 µg/mL	<0.06 µg/mL	2 µg/mL	>64.00 µg/mL
CCC1OC(=O)C(C)C(=O)C(C)C(OC2OC(C)CC(N(C)C)C2O)C(C)(OC)CC(C)C(=O)C(C)C2N(CC3CCN(C(=O)c4ccc5cnccc5n4)C3)C(=O)OC12C (stereo not drawn) [13.09]						>64.00 µg/mL	1 µg/mL (≈ 1.17 µM)	<0.06 µg/mL	4 µg/mL (≈ 4.69 µM)	>64.00 µg/mL
CCC1OC(=O)C(C)C(=O)C(C)C(OC2OC(C)CC(N(C)C)C2O)C(C)(OC)CC(C)C(=O)C(C)C2N(CC3CCCN3C(=O)c3nc4ccncc4[nH]3)C(=O)OC12C (stereo not drawn) [10.24]						<0.06 µg/mL	1 µg/mL (≈ 1.19 µM)	<0.06 µg/mL	2 µg/mL (≈ 2.38 µM)	>64.00 µg/mL
CCC1OC(=O)C(C)C(=O)C(C)C(OC2OC(C)CC(N(C)C)C2O)C(C)(OC)CC(C)C(=O)C(C)C2N(C3CN(S(=O)(=O)c4cccc(-c5nnc(C)o5)c4)C3)C(=O)OC12C (stereo not drawn) [Example 3.60, 3-descladinosyl-11,12-dideoxy-6-O-methyl-3-oxo-12,11-(oxycarbonyl-(1-(3-(5-methyl-1,3,4-oxadiazol-2-yl)benzenesulfonyl)-azetidin-3-yl)imino)erythromycin A]	<0.06 µg/mL	0.12 µg/mL (≈ 0.135 µM)	<0.06 µg/mL	2 µg/mL (≈ 2.25 µM)	4 µg/mL (≈ 4.49 µM)					
CC[C@H]1OC(=O)[C@H](C)C(=O)[C@H](C)[C@@H](O[C@@H]2O[C@H](C)C[C@H](N(C)C)[C@H]2O)[C@](C)(OC)C[C@@H](C)C(=O)[C@H](C)[C@H]2N(CC3(O)CN(C(=O)c4cccc5ncccc45)C3)C(=O)O[C@]12C [7.19]						0.12 µg/mL (≈ 0.141 µM)	0.25 µg/mL (≈ 0.293 µM)	<0.06 µg/mL	1 µg/mL (≈ 1.17 µM)	>64.00 µg/mL
CC[C@H]1OC(=O)[C@H](C)C(=O)[C@H](C)[C@@H](O[C@@H]2O[C@H](C)C[C@H](N(C)C)[C@H]2O)[C@](C)(OC)C[C@@H](C)C(=O)[C@H](C)[C@H]2N(CC3(C)CN(Cc4cccc5nccnc45)C3)C(=O)O[C@]12C [6.05]	<0.06 µg/mL	0.12 µg/mL (≈ 0.143 µM)	<0.06 µg/mL	1 µg/mL (≈ 1.19 µM)	>64.00 µg/mL					
CCC1OC(=O)C(C)C(=O)C(C)C(OC2OC(C)CC(N(C)C)C2O)C(C)(OC)CC(C)C(=O)C(C)C2N(C3CN(S(=O)(=O)c4ccc(F)c(C#N)c4)C3)C(=O)OC12C (stereo not drawn) [Example 3.77, 3-descladinosyl-11,12-dideoxy-6-O-methyl-3-oxo-12,11-(oxycarbonyl-(1-(3-cyano-4-fluorobenzenesulfonyl)-azetidin-3-yl)-imino)-erythromycin A]	<0.06 µg/mL	<0.06 µg/mL	<0.06 µg/mL	1 µg/mL (≈ 1.18 µM)	8 µg/mL (≈ 9.4 µM)					
CCC1OC(=O)C(C)C(=O)C(C)C(OC2OC(C)CC(N(C)C)C2O)C(C)(OC)CC(C)C(=O)C(C)C2N(C3CN(C(=O)c4ccc(-n5cccn5)nc4)C3)C(=O)OC12C (stereo not drawn) [Example 2.20]	1 µg/mL (≈ 1.19 µM)	0.12 µg/mL (≈ 0.143 µM)	<0.06 µg/mL	16 µg/mL (≈ 19.1 µM)	>64.00 µg/mL					
CCC1OC(=O)C(C)C(=O)C(C)C(OC2OC(C)CC(N(C)C)C2O)C(C)(OC)CC(C)C(=O)C(C)C2N(C3CN(S(=O)(=O)c4cnn(-c5ccccn5)c4)C3)C(=O)OC12C (stereo not drawn) [Example 3.21, 1-(pyridin-2-yl)-1H-pyrazole-4-sulfonyl]	<0.06 µg/mL	<0.06 µg/mL	<0.06 µg/mL	1 µg/mL (≈ 1.14 µM)	>64.00 µg/mL					
CCC1OC(=O)C(C)C(=O)C(C)C(OC2OC(C)CC(N(C)C)C2O)C(C)(OC)CC(C)C(=O)C(C)C2N(C3CN(S(=O)(=O)c4ccc(Oc5ccncc5)cc4)C3)C(=O)OC12C (stereo not drawn) [Example 3.26]	<0.06 µg/mL	8 µg/mL (≈ 8.88 µM)	<0.06 µg/mL	4 µg/mL (≈ 4.44 µM)	64 µg/mL (≈ 71 µM)					
CCC1OC(=O)C(C)C(=O)C(C)C(OC2OC(C)CC(N(C)C)C2O)C(C)(OC)CC(C)C(=O)C(C)C2N(C3CN(S(=O)(=O)c4cccc5cccnc45)C3)C(=O)OC12C (stereo not drawn) [Example 3.03, 3-descladinosyl-11,12-dideoxy-O-methyl-3-oxo-12,11-(oxycarbonyl-(1-(quinoline-8-sulfonyl)-azetidin-3-yl)-imino)-erythromycin A]	<0.06 µg/mL	<0.06 µg/mL	<0.06 µg/mL	0.12 µg/mL (≈ 0.14 µM)	1 µg/mL (≈ 1.16 µM)					
CCC1OC(=O)C(C)C(=O)C(C)C(OC2OC(C)CC(N(C)C)C2O)C(C)(OC)CC(C)C(=O)C(C)C2N(CC3CN(C(=O)c4cc(F)ccc4F)C3)C(=O)OC12C (stereo not drawn) [4.02]	0.5 µg/mL (≈ 0.608 µM)	0.5 µg/mL (≈ 0.608 µM)	0.01 µg/mL (≈ 0.0122 µM)	3.12 µg/mL (≈ 3.8 µM)	100 µg/mL (≈ 122 µM)					
CCC1OC(=O)C(C)C(=O)C(C)C(OC2OC(C)CC(N(C)C)C2O)C(C)(OC)CC(C)C(=O)C(C)C2N(CC3CCCN3S(=O)(=O)c3cccc4cnccc34)C(=O)OC12C (stereo not drawn) [10.46]						<0.06 µg/mL	<0.06 µg/mL	<0.06 µg/mL	1 µg/mL (≈ 1.13 µM)	64 µg/mL (≈ 72.1 µM)
